Results reported in patent US9708314B2, “Heterocyclic amide compound” (NISSAN CHEMICAL INDUSTRIES, LTD., priority 2013, dated 2017).
Several values for one entry are separate records, joined by “and”; a condition that tells them apart may be missing. Equal entries are not always repeated.

Key:
Test in all cases: Test Example 2: herbicidal activity, application during weed generation in submerged conditions
Format in all cases: in vivo
Conditions in all cases: Eighteenth Table; application herbicide amount 320 g/ha
Scirpus juncoides = tested on: Scirpus juncoides
Summary of the method: (§1)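 Scored three weeks post-application on a 0–5 scale (5: ≥90% herbicidal ratio, almost withered; 0: ≤5%). Plants raised from mixed-sown seed in submerged alluvial soil (4 cm water), 25–30 °C greenhouse; water-diluted emulsion applied onto water surface at one- to two-leaf stage, dose in g/ha.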

Monochoria vaginalis = tested on: Monochoria vaginalis
Summary of the method: as §1

[1] = tested on: Echinochloa oryzacola Vasing.
Summary of the method: as §1

Cn1nnnc1NC(=O)c1ccc(C(F)(F)F)n2c(Nc3ccccc3)nnc12 [2-056]
B (Scirpus juncoides) herbicidal ratio grade (Scirpus juncoides): 3 (Herbicidal ratio of 40% or more and less than 70%)
C (Monochoria vaginalis) herbicidal ratio grade (Monochoria vaginalis): 3 (Herbicidal ratio of 40% or more and less than 70%)
A (Echinochloa oryzicola Vasing.) herbicidal ratio grade [1]: 3 (Herbicidal ratio of 40% or more and less than 70%)

CSCCc1nnc2c(C(=O)Nc3nnnn3C)ccc(C(F)(F)F)n12 [2-057]
B (Scirpus juncoides) herbicidal ratio grade (Scirpus juncoides): 4 (Herbicidal ratio of 70% or more and less than 90%)
C (Monochoria vaginalis) herbicidal ratio grade (Monochoria vaginalis): 4 (Herbicidal ratio of 70% or more and less than 90%)
A (Echinochloa oryzicola Vasing.) herbicidal ratio grade [1]: 4 (Herbicidal ratio of 70% or more and less than 90%)

Cn1nnnc1NC(=O)c1ccc(C(F)(F)F)n2c(CC[S+](C)[O-])nnc12 (stereo not drawn) [2-058]
B (Scirpus juncoides) herbicidal ratio grade (Scirpus juncoides): 4 (Herbicidal ratio of 70% or more and less than 90%)
C (Monochoria vaginalis) herbicidal ratio grade (Monochoria vaginalis): 4 (Herbicidal ratio of 70% or more and less than 90%)
A (Echinochloa oryzicola Vasing.) herbicidal ratio grade [1]: 4 (Herbicidal ratio of 70% or more and less than 90%)

Cn1nnnc1NC(=O)c1ccc(C(F)(F)F)n2c(CCS(C)(=O)=O)nnc12 [2-059]
B (Scirpus juncoides) herbicidal ratio grade (Scirpus juncoides): 3 (Herbicidal ratio of 40% or more and less than 70%)
C (Monochoria vaginalis) herbicidal ratio grade (Monochoria vaginalis): 4 (Herbicidal ratio of 70% or more and less than 90%)
A (Echinochloa oryzicola Vasing.) herbicidal ratio grade [1]: 4 (Herbicidal ratio of 70% or more and less than 90%)

Cn1nnnc1NC(=O)c1ccc(C(F)(F)F)n2c(-c3ccc(Cl)nc3)nnc12 [2-060]
B (Scirpus juncoides) herbicidal ratio grade (Scirpus juncoides): 4 (Herbicidal ratio of 70% or more and less than 90%) and 3 (Herbicidal ratio of 40% or more and less than 70%)
C (Monochoria vaginalis) herbicidal ratio grade (Monochoria vaginalis): 5 (Herbicidal ratio of 90% or more (almost completely withered))
A (Echinochloa oryzicola Vasing.) herbicidal ratio grade [1]: 5 (Herbicidal ratio of 90% or more (almost completely withered))

Cn1nnnc1NC(=O)c1ccc(C(F)(F)F)n2c(-c3cccs3)nnc12 [2-061]
B (Scirpus juncoides) herbicidal ratio grade (Scirpus juncoides): 5 (Herbicidal ratio of 90% or more (almost completely withered))
C (Monochoria vaginalis) herbicidal ratio grade (Monochoria vaginalis): 5 (Herbicidal ratio of 90% or more (almost completely withered))
A (Echinochloa oryzicola Vasing.) herbicidal ratio grade [1]: 4 (Herbicidal ratio of 70% or more and less than 90%)

Cc1cc(-c2nnc3c(C(=O)Nc4nnnn4C)ccc(C(F)(F)F)n23)n(C)n1 [2-062]
B (Scirpus juncoides) herbicidal ratio grade (Scirpus juncoides): 4 (Herbicidal ratio of 70% or more and less than 90%)
C (Monochoria vaginalis) herbicidal ratio grade (Monochoria vaginalis): 5 (Herbicidal ratio of 90% or more (almost completely withered))
A (Echinochloa oryzicola Vasing.) herbicidal ratio grade [1]: 5 (Herbicidal ratio of 90% or more (almost completely withered))

COc1cc(OC)cc(-c2nnc3c(C(=O)Nc4nnnn4C)ccc(C(F)(F)F)n23)c1 [2-063]
B (Scirpus juncoides) herbicidal ratio grade (Scirpus juncoides): 4 (Herbicidal ratio of 70% or more and less than 90%)
C (Monochoria vaginalis) herbicidal ratio grade (Monochoria vaginalis): 5 (Herbicidal ratio of 90% or more (almost completely withered))
A (Echinochloa oryzicola Vasing.) herbicidal ratio grade [1]: 5 (Herbicidal ratio of 90% or more (almost completely withered))

Cn1nnnc1NC(=O)c1ccc(C(F)(F)F)n2c(-c3cc(Cl)cc(Cl)c3)nnc12 [2-064]
B (Scirpus juncoides) herbicidal ratio grade (Scirpus juncoides): 4 (Herbicidal ratio of 70% or more and less than 90%)
C (Monochoria vaginalis) herbicidal ratio grade (Monochoria vaginalis): 3 (Herbicidal ratio of 40% or more and less than 70%)
A (Echinochloa oryzicola Vasing.) herbicidal ratio grade [1]: 3 (Herbicidal ratio of 40% or more and less than 70%)

COc1ccc(Cc2nnc3c(C(=O)Nc4nnnn4C)ccc(C(F)(F)F)n23)cc1 [2-065]
B (Scirpus juncoides) herbicidal ratio grade (Scirpus juncoides): 4 (Herbicidal ratio of 70% or more and less than 90%)
C (Monochoria vaginalis) herbicidal ratio grade (Monochoria vaginalis): 4 (Herbicidal ratio of 70% or more and less than 90%)
A (Echinochloa oryzicola Vasing.) herbicidal ratio grade [1]: 5 (Herbicidal ratio of 90% or more (almost completely withered))

Cn1nnnc1NC(=O)c1ccc(C(F)(F)F)n2c([S+](C)[O-])nnc12 (stereo not drawn) [2-067]
B (Scirpus juncoides) herbicidal ratio grade (Scirpus juncoides): 4 (Herbicidal ratio of 70% or more and less than 90%)
C (Monochoria vaginalis) herbicidal ratio grade (Monochoria vaginalis): 5 (Herbicidal ratio of 90% or more (almost completely withered))
A (Echinochloa oryzicola Vasing.) herbicidal ratio grade [1]: 5 (Herbicidal ratio of 90% or more (almost completely withered))

CCCSc1nnc2c(C(=O)Nc3nnnn3C)ccc(C(F)(F)F)n12 [2-068]
B (Scirpus juncoides) herbicidal ratio grade (Scirpus juncoides): 5 (Herbicidal ratio of 90% or more (almost completely withered))
C (Monochoria vaginalis) herbicidal ratio grade (Monochoria vaginalis): 4 (Herbicidal ratio of 70% or more and less than 90%)
A (Echinochloa oryzicola Vasing.) herbicidal ratio grade [1]: 5 (Herbicidal ratio of 90% or more (almost completely withered))

CCC[S+]([O-])c1nnc2c(C(=O)Nc3nnnn3C)ccc(C(F)(F)F)n12 (stereo not drawn) [2-069]
B (Scirpus juncoides) herbicidal ratio grade (Scirpus juncoides): 5 (Herbicidal ratio of 90% or more (almost completely withered))
C (Monochoria vaginalis) herbicidal ratio grade (Monochoria vaginalis): 5 (Herbicidal ratio of 90% or more (almost completely withered))
A (Echinochloa oryzicola Vasing.) herbicidal ratio grade [1]: 5 (Herbicidal ratio of 90% or more (almost completely withered))

CCCS(=O)(=O)c1nnc2c(C(=O)Nc3nnnn3C)ccc(C(F)(F)F)n12 [2-070]
B (Scirpus juncoides) herbicidal ratio grade (Scirpus juncoides): 5 (Herbicidal ratio of 90% or more (almost completely withered))
C (Monochoria vaginalis) herbicidal ratio grade (Monochoria vaginalis): 5 (Herbicidal ratio of 90% or more (almost completely withered))
A (Echinochloa oryzicola Vasing.) herbicidal ratio grade [1]: 5 (Herbicidal ratio of 90% or more (almost completely withered))

CC(C)CSc1nnc2c(C(=O)Nc3nnnn3C)ccc(C(F)(F)F)n12 [2-071]
B (Scirpus juncoides) herbicidal ratio grade (Scirpus juncoides): 5 (Herbicidal ratio of 90% or more (almost completely withered))
C (Monochoria vaginalis) herbicidal ratio grade (Monochoria vaginalis): 5 (Herbicidal ratio of 90% or more (almost completely withered))
A (Echinochloa oryzicola Vasing.) herbicidal ratio grade [1]: 3 (Herbicidal ratio of 40% or more and less than 70%)

CCC(C)Sc1nnc2c(C(=O)Nc3nnnn3C)ccc(C(F)(F)F)n12 (stereo not drawn) [2-072]
B (Scirpus juncoides) herbicidal ratio grade (Scirpus juncoides): 5 (Herbicidal ratio of 90% or more (almost completely withered))
C (Monochoria vaginalis) herbicidal ratio grade (Monochoria vaginalis): 5 (Herbicidal ratio of 90% or more (almost completely withered))
A (Echinochloa oryzicola Vasing.) herbicidal ratio grade [1]: 5 (Herbicidal ratio of 90% or more (almost completely withered))

CC(C)c1nnc2c(C(=O)Nc3nnnn3-c3ccccc3)ccc(C(F)(F)F)n12 [2-073]
B (Scirpus juncoides) herbicidal ratio grade (Scirpus juncoides): 2 (Herbicidal ratio of 20% or more and less than 40%)
C (Monochoria vaginalis) herbicidal ratio grade (Monochoria vaginalis): 3 (Herbicidal ratio of 40% or more and less than 70%)
A (Echinochloa oryzicola Vasing.) herbicidal ratio grade [1]: 2 (Herbicidal ratio of 20% or more and less than 40%)

COCCNc1nnc2c(C(=O)Nc3nnnn3C)ccc(C(F)(F)F)n12 [2-074]
B (Scirpus juncoides) herbicidal ratio grade (Scirpus juncoides): 4 (Herbicidal ratio of 70% or more and less than 90%)
C (Monochoria vaginalis) herbicidal ratio grade (Monochoria vaginalis): 3 (Herbicidal ratio of 40% or more and less than 70%)
A (Echinochloa oryzicola Vasing.) herbicidal ratio grade [1]: 4 (Herbicidal ratio of 70% or more and less than 90%)

Cn1nnnc1NC(=O)c1ccc(C(F)(F)F)n2c(N3CCOCC3)nnc12 [2-075]
B (Scirpus juncoides) herbicidal ratio grade (Scirpus juncoides): 5 (Herbicidal ratio of 90% or more (almost completely withered))
C (Monochoria vaginalis) herbicidal ratio grade (Monochoria vaginalis): 5 (Herbicidal ratio of 90% or more (almost completely withered))
A (Echinochloa oryzicola Vasing.) herbicidal ratio grade [1]: 5 (Herbicidal ratio of 90% or more (almost completely withered))

Cn1nnnc1NC(=O)c1ccc(C(F)(F)F)n2c(SCc3ccccc3)nnc12 [2-076]
B (Scirpus juncoides) herbicidal ratio grade (Scirpus juncoides): 3 (Herbicidal ratio of 40% or more and less than 70%)
C (Monochoria vaginalis) herbicidal ratio grade (Monochoria vaginalis): 2 (Herbicidal ratio of 20% or more and less than 40%)
A (Echinochloa oryzicola Vasing.) herbicidal ratio grade [1]: 2 (Herbicidal ratio of 20% or more and less than 40%)

COc1ccc(CSc2nnc3c(C(=O)Nc4nnnn4C)ccc(C(F)(F)F)n23)cc1 [2-077]
B (Scirpus juncoides) herbicidal ratio grade (Scirpus juncoides): 2 (Herbicidal ratio of 20% or more and less than 40%)
C (Monochoria vaginalis) herbicidal ratio grade (Monochoria vaginalis): 2 (Herbicidal ratio of 20% or more and less than 40%)
A (Echinochloa oryzicola Vasing.) herbicidal ratio grade [1]: 2 (Herbicidal ratio of 20% or more and less than 40%)

Cn1nnnc1NC(=O)c1ccc(C(F)(F)F)n2c(N3CCSCC3)nnc12 [2-078]
B (Scirpus juncoides) herbicidal ratio grade (Scirpus juncoides): 4 (Herbicidal ratio of 70% or more and less than 90%)
C (Monochoria vaginalis) herbicidal ratio grade (Monochoria vaginalis): 3 (Herbicidal ratio of 40% or more and less than 70%)
A (Echinochloa oryzicola Vasing.) herbicidal ratio grade [1]: 4 (Herbicidal ratio of 70% or more and less than 90%)

COCCN(C)c1nnc2c(C(=O)Nc3nnnn3C)ccc(C(F)(F)F)n12 [2-079]
B (Scirpus juncoides) herbicidal ratio grade (Scirpus juncoides): 5 (Herbicidal ratio of 90% or more (almost completely withered))
C (Monochoria vaginalis) herbicidal ratio grade (Monochoria vaginalis): 5 (Herbicidal ratio of 90% or more (almost completely withered))
A (Echinochloa oryzicola Vasing.) herbicidal ratio grade [1]: 5 (Herbicidal ratio of 90% or more (almost completely withered))

CSCCNc1nnc2c(C(=O)Nc3nnnn3C)ccc(C(F)(F)F)n12 [2-080]
B (Scirpus juncoides) herbicidal ratio grade (Scirpus juncoides): 1 (Herbicidal ratio of 5% or more and less than 20%)
C (Monochoria vaginalis) herbicidal ratio grade (Monochoria vaginalis): 0 (Herbicidal ratio of 5% or less (almost no effect))
A (Echinochloa oryzicola Vasing.) herbicidal ratio grade [1]: 2 (Herbicidal ratio of 20% or more and less than 40%)

Cn1nnnc1NC(=O)c1ccc(C(F)(F)F)n2c(NCC(F)(F)F)nnc12 [2-081]
B (Scirpus juncoides) herbicidal ratio grade (Scirpus juncoides): 2 (Herbicidal ratio of 20% or more and less than 40%)
C (Monochoria vaginalis) herbicidal ratio grade (Monochoria vaginalis): 2 (Herbicidal ratio of 20% or more and less than 40%)
A (Echinochloa oryzicola Vasing.) herbicidal ratio grade [1]: 2 (Herbicidal ratio of 20% or more and less than 40%)

CC(C)N(C)c1nnc2c(C(=O)Nc3nnnn3C)ccc(C(F)(F)F)n12 [2-082]
B (Scirpus juncoides) herbicidal ratio grade (Scirpus juncoides): 4 (Herbicidal ratio of 70% or more and less than 90%)
C (Monochoria vaginalis) herbicidal ratio grade (Monochoria vaginalis): 3 (Herbicidal ratio of 40% or more and less than 70%)
A (Echinochloa oryzicola Vasing.) herbicidal ratio grade [1]: 5 (Herbicidal ratio of 90% or more (almost completely withered))

CN(c1nnc2c(C(=O)Nc3nnnn3C)ccc(C(F)(F)F)n12)C1CCCCC1 [2-083]
B (Scirpus juncoides) herbicidal ratio grade (Scirpus juncoides): 3 (Herbicidal ratio of 40% or more and less than 70%)
C (Monochoria vaginalis) herbicidal ratio grade (Monochoria vaginalis): 3 (Herbicidal ratio of 40% or more and less than 70%)
A (Echinochloa oryzicola Vasing.) herbicidal ratio grade [1]: 3 (Herbicidal ratio of 40% or more and less than 70%)
